Assay results from US20170035847A1, “COMPOSITIONS AND METHODS FOR TREATING INFLAMMATION-ASSOCIATED DISORDERS OF THE GASTROINTESTINAL TRACT” (TherapyX, Inc., priority 2015, published 2017).
Values belong to the molecule of their own block, whether it stands above or below them.

Experiments:
in vivo = settings: rat, iv
Experimental: In addition to the studies discussed above a bioavailability and pharmacokinetic study of TGFβ and ATRA was conducted following a single oral administration of PIN®-encapsulated TGFβ and ATRA in male rats, when compared to intravenous administration.

[1] = test system: DSS-induced colitis in C57Black6 mice; experiment: Dextran sodium sulphate-induced colitis; type: in vivo, mouse
Excerpt: Animals: Mice 6-8-weeks old (C57Black6 mice [males: n=6; females: n=6; 12 per group]) were purchased from Harlan Nossan, San Pietro al Natisone, Udine, Italy, and housed in a vivarium under pathogen-free conditions at the Department of Biomedical Sciences in the School of Medicine at the University of Catania [Catania, Italy]. The mice were kept under standard laboratory conditions with free access to food and water. They were allowed to adapt for 1 week before starting the study. The care and use of laboratory animals was in accordance with a University of Catania IACUC-approved animal use protocol.
Colitis was induced with 3% dextran sodium sulphate [50 kDa; Sigma-Aldrich] in drinking water for 4 days. The first treatment was given 24 h before induction of colitis [Day −1] and continued every other day for 6 days.
Disease score, SAA levels and histological analysis were performed as above.
To more broadly test the ability of oral TGFβ/ATRA-loaded microspheres to ameliorate IBD, a second model, the DSS-induced colitis model, was employed. Acute colitis was induced in C57Black6 mice [equal numbers of males and females, […]] with 3% DSS[50 kDa] in drinking water for 4 days. […] Mice were monitored daily for overall disease score and weight loss. At the end of 7 days, animals were sacrificed, sera taken and colons harvested, weighed, and measured on Day 7 [24 h after final treatment]. […] SAA levels, colon weight-to-length ratios, and histology scores determined. […] Mice were sacrificed 7 days after first treatment and levels of SAA determined [FIG. 10C]. […] The colons of sacrificed mice were also analyzed for colon weight-to-length ratio [FIG. 10D]. […] Next, ascending, transverse, and descending colon from naïve C57Black6 [no disease], untreated, TGFβ/ATRA-treated, and control [fed blank particles] mice were fixed in 10% formalin, embedded in paraffin, sectioned [5 μm] and stained with H & E. Five randomly-selected sections from each mouse were scored [Table 2] for disease severity. […]

AUC (in vivo; male, 1.6 mg/kg): 3500 ng·h/mL
half-life (in vivo; male, 1.6 mg/kg): 34 min
Molecule: CC1=C(/C=C/C(C)=C/C=C/C(C)=C/C(=O)O)C(C)(C)CCC1 [ATRA, all-trans retinoic acid]

Molecule: O=C(O)c1cc(/N=N/c2ccc(S(=O)(=O)Nc3ccccn3)cc2)ccc1O [sulphasalazine]
SAA levels, difference to no treatment ([1]; Day 7, TGFβ/ATRA 10 and 20 μg, sulphasalazine 50 mg/kg daily): significant
colon weight-to-length ratio ([1]; Day 7, control groups almost 40 mg/cm, p<0.01): 35 mg/cm
weight loss ([1]; TGFβ/ATRA 10 and 20 μg every other day, sulphasalazine 50 mg/kg daily oral for 7 days): neither sulphasalazine nor TGFβ/ATRA treatment was able to reduce weight loss

Molecule: TGFβ: soluble unencapsulated protein, transforming growth factor β; human recombinant TGFβ (Peprotech)
Area under the curve [AUC] (in vivo; 0.04 mg/kg): 10 ng·h/mL
t1/2 (in vivo; 0.04 mg/kg): 5 min
